The values below come from patent US10858335B2 (Rigel Pharmaceuticals, Inc., priority 2014, dated 2020).

The structures appear in SMILES notation.

The subject of the first assay is GDF8 signaling (p-SMAD-3 (Ser423/425)). The assay can be described thus: AlphaScreen SureFire SMAD3 (p-Ser423/425) assay, GDF8-stimulated cells (GDF pSMAD). Conditions: Mus musculus, MPC-11, GDF8-stimulated pSMAD3, MPC11; tested as the salt form given; read-out: GDF pSMAD (MPC11) (μM), inhibition of GDF8 signaling. The class given is cell-based. In general terms: Bead proximity is the source of the signal in Alpha formats.
Regarding `Cc1cc(-c2ncccc2-c2ccc3ncnc(NCC(N)=O)c3c2)ccc1F` [compound 1026, 2-((6-(2-(4-fluoro-3-methylphenyl)pyridin-3-yl)quinazolin-4-yl)amino)acetamide], the IC50 turned out to be 0.737 µM.

For `Cc1cc(-c2ncccc2-c2ccc3ncnc(NCCC(N)=O)c3c2)ccc1F` [compound 1029, 3-((6-(2-(4-fluoro-3-methylphenyl)pyridin-3-yl)quinazolin-4-yl)amino)propanamide], the IC50 came to 2.61 µM.

Regarding `Nc1ncnc2ccc(-c3cccnc3-c3cc(Cl)cc(F)c3F)cc12` [compound 1035, 6-(2-(5-chloro-2,3-difluorophenyl)pyridin-3-yl)quinazolin-4-amine], the IC50 turned out to be 0.161 µM.

For `Cc1cc(F)c(F)cc1-c1ncccc1-c1ccc2ncnc(N)c2c1` [compound 987, 6-(2-(4,5-difluoro-2-methylphenyl)pyridin-3-yl)quinazolin-4-amine], the IC50 stood at 8 µM.

In the case of `COc1cc(-c2ncccc2-c2ccc3ncnc(N)c3c2)c(C)cc1F` [compound 1022, 6-(2-(4-fluoro-5-methoxy-2-methylphenyl)pyridin-3-yl)quinazolin-4-amine], the IC50 stood at 13.7 µM.

On to `Nc1ncnc2ccc(-c3cccnc3-c3cc(OC(F)F)ccc3Cl)cc12` [compound 1017, 6-(2-(2-chloro-5-(difluoromethoxy)phenyl)pyridin-3-yl)quinazolin-4-amine], for which the IC50 was determined as 2.08 µM.

The same assay, now with this note: Mus musculus, MPC-11, MPC11; GDF8-stimulated; p-SMAD3 AlphaScreen; read-out: GDF pSMAD (MPC11) (inhibition of GDF8 signaling).
For the molecule `Cc1c(Cl)cccc1-c1ncccc1-c1ccc2ncnn2c1` [compound 773, 6-(2-(3-Chloro-2-methylphenyl)pyridin-3-yl)-[1,2,4]triazolo[1,5-a]pyridine], the IC50 amounted to 8.48 µM.

For the molecule `Cc1c(-c2cccnc2-c2cc(Cl)c(F)cc2F)ccc2ncnn12` [compound 813, 6-(2-(5-Chloro-2,4-difluorophenyl)pyridin-3-yl)-5-methyl-[1,2,4]triazolo[1,5-a]pyridine], the IC50 was found to be 2.43 µM.

As for `Cc1cc(-c2ncccc2-c2ccc3ncnc(Nc4ccc(N5CCOCC5)cc4)c3c2)ccc1F` [compound 408, 6-(2-(4-Fluoro-3-methylphenyl)pyridin-3-yl)-N-(4-morpholinophenyl)quinazolin-4-amine], the IC50 was 0.673 µM.

As to `CCOC(=O)c1cnn2ccc(-c3cccnc3-c3ccc(F)c(Cl)c3)nc12` [compound 898, Ethyl 5-(2-(3-chloro-4-fluorophenyl)pyridin-3-yl)pyrazolo[1,5-a]pyrimidine-3-carboxylate], the IC50 worked out at 0.714 µM.

In the case of `Cc1cc(-c2ncccc2-c2ccc3ncnn3c2C)ccc1F` [compound 809, 6-(2-(4-Fluoro-3-methylphenyl)pyridin-3-yl)-5-methyl-[1,2,4]triazolo[1,5-a]pyridine], the IC50 is 4 µM.

With `CC(=O)Nc1ccc(CNc2cnc(-c3ccc(F)c(C)c3)c(-c3ccc4ncsc4c3)c2)cc1` [compound 338, N-(4-(((5-(Benzo[d]thiazol-6-yl)-6-(4-fluoro-3-methylphenyl)pyridin-3-yl)amino)methyl)phenyl)acetamide], the IC50 is 0.164 µM.

As to `Fc1ccc(-c2ncccc2-c2ccc3ncnn3c2)cc1Cl` [compound 692, 6-(2-(3-Chloro-4-fluorophenyl)pyridin-3-yl)-[1,2,4]triazolo[1,5-a]pyridine], the IC50 was determined as 0.436 µM.

For the molecule `Cc1cc(-c2ncccc2-c2ccn3ncc(C(=O)NCCCN4CCN(C)CC4)c3c2)ccc1F` [compound 676, 5-(2-(4-Fluoro-3-methylphenyl)pyridin-3-yl)-N-(3-(4-methylpiperazin-1-yl)propyl)pyrazolo[1,5-a]pyridine-3-carboxamide], the IC50 was determined as 0.267 µM.

With `Cc1cn2cc(-c3cccnc3-c3cccc(C4CC4)c3)ccc2n1` [compound 533, 6-(2-(3-Cyclopropylphenyl)pyridin-3-yl)-2-methylimidazo[1,2-a]pyridine], the IC50 is 6.12 µM.

Take `COc1cccc(-c2ncc3cc(-c4cccnc4-c4ccc(F)c(C)c4)ccn23)c1` [compound 286, 7-(2-(4-Fluoro-3-methylphenyl)pyridin-3-yl)-3-(3-methoxyphenyl)imidazo[1,5-a]pyridine]: the IC50 is 12 µM.

Regarding `Cc1cc(-c2ncccc2-c2ccc3ncnc(OC4CCN(c5ccncc5)CC4)c3c2)ccc1F` [compound 447, 6-(2-(4-Fluoro-3-methylphenyl)pyridin-3-yl)-4-((1-(pyridin-4-yl)piperidin-4-yl)oxy)quinazoline], the IC50 amounted to 0.753 µM.

As to `Cc1cccc(-c2ncccc2-c2cnc3[nH]ncc3c2)c1` [Compound 79, 5-(2-m-Tolylpyridin-3-yl)-1H-pyrazolo[3,4-b]pyridine], the IC50 was determined as 0.264 µM.

With `Cc1cccc(-c2ncccc2-c2ccc3c(c2)OCO3)c1` [Compound 109, 3-(Benzo[d][1,3]dioxol-6-yl)-2-m-tolylpyridine], the IC50 stood at 17.2 µM.

In the case of `Cc1cc(-c2ncccc2-c2ccc3ncc(C(=O)NCC(O)CO)n3c2)ccc1F` (stereo not drawn) [compound 613, N-(2,3-Dihydroxypropyl)-6-(2-(4-fluoro-3-methylphenyl)pyridin-3-yl)imidazo[1,2-a]pyridine-3-carboxamide], the IC50 was determined as 0.624 µM.

Regarding `Cc1cc(-c2ncccc2-c2ccn3ncc(C(=O)N[C@H]4CN5CCC4CC5)c3c2)ccc1F` [compound 793, (R)-5-(2-(4-Fluoro-3-methylphenyl)pyridin-3-yl)-N-(quinuclidin-3-yl)pyrazolo[1,5-a]pyridine-3-carboxamide], the IC50 came to 2.08 µM.

Regarding `Cc1cc(-c2ncccc2-c2cc(C)c3[nH]ncc3c2)ccc1F` [Compound 175, 5-(2-(4-Fluoro-3-methylphenyl)pyridin-3-yl)-7-methyl-1H-indazole], the IC50 is 0.118 µM.

Consider `N#Cc1cnc2ccc(-c3cccnc3-c3ccccc3F)cn12` [compound 623, 6-(2-(2-Fluorophenyl)pyridin-3-yl)imidazo[1,2-a]pyridine-3-carbonitrile], for which the IC50 was 6.87 µM.

`Cc1cc(-c2ncccc2-c2ccn3nccc3c2)ccc1F` [compound 756, 5-(2-(4-Fluoro-3-methylphenyl)pyridin-3-yl)pyrazolo[1,5-a]pyridine]: the IC50 came out at 0.364 µM.

Turning to `NC(=O)c1ccnc2ccc(-c3cccnc3-c3cc(Cl)c(F)cc3F)cc12` [compound 850, 6-(2-(5-Chloro-2,4-difluorophenyl)pyridin-3-yl)quinoline-4-carboxamide], the IC50 was found to be 20.7 µM.

Take `Cc1cccc(-c2ncc(NS(C)(=O)=O)cc2-c2ccc3[nH]ncc3c2)c1` [Compound 32, N-(5-(1H-Indazol-5-yl)-6-m-tolylpyridin-3-yl) methanesulfonamide]: the IC50 turned out to be 2.8 µM.

As to `Cc1cnc(-c2cccc(C(F)(F)F)c2)c(-c2ccn3ncnc3c2)c1` [compound 867, 7-(2-(3-((Difluoro-13-methyl)-12-fluoranyl)phenyl)-5-methylpyridin-3-yl)-[1,2,4]triazolo[1,5-a]pyridine], the IC50 was 0.752 µM.

For `Cc1cc(-c2ncccc2-c2ccc3ncc(C(=O)NCCC45CCCN4CCC5)n3c2)ccc1F` [compound 803, 6-(2-(4-Fluoro-3-methylphenyl)pyridin-3-yl)-N-(2-(tetrahydro-1H-pyrrolizin-7a(5H)-yl)ethyl)imidazo[1,2-a]pyridine-3-carboxamide], the IC50 turned out to be 2.26 µM.

As for `Cc1cc(-c2ncccc2-c2ccc3cnc(N)nc3c2)ccc1F` [compound 396, 7-(2-(4-Fluoro-3-methylphenyl)pyridin-3-yl)quinazolin-2-amine], the IC50 was 0.208 µM.

Regarding `Cc1cc(-c2ncccc2-c2ccc3ncc(C(=O)NCCCN4CCCCC4)n3c2)ccc1F` [compound 611, 6-(2-(4-Fluoro-3-methylphenyl)pyridin-3-yl)-N-(3-(piperidin-1-yl)propyl)imidazo[1,2-a]pyridine-3-carboxamide], the IC50 is 0.114 µM.

On to `Cc1cnc2ccc(-c3cccnc3-c3cccc(Cl)c3)cn12` [compound 765, 6-(2-(3-Chlorophenyl)pyridin-3-yl)-3-methylimidazo[1,2-a]pyridine], for which the IC50 turned out to be 0.096 µM.

Turning to `Fc1cc(F)c(-c2ncccc2-c2ccn3nccc3n2)cc1F` [compound 915, 5-(2-(2,4,5-Trifluorophenyl)pyridin-3-yl)pyrazolo[1,5-a]pyrimidine], the IC50 amounted to 0.558 µM.

With `Cc1cc(-c2ncccc2-c2ccn3c(C(=O)NCCN4CCN(C)CC4)ncc3c2)ccc1F` [compound 265, 7-(2-(4-Fluoro-3-methylphenyl)pyridin-3-yl)-N-(2-(4-methylpiperazin-1-yl)ethyl)imidazo[1,5-a]pyridine-3-carboxamide], the IC50 came to 8.12 µM.

Turning to `Cn1cnc2ccc(-c3cccnc3-c3cccc(C4CC4)c3)cc2c1=O` [compound 342, 6-(2-(3-Cyclopropylphenyl)pyridin-3-yl)-3-methylquinazolin-4(3H)-one], the IC50 came to 0.106 µM.

On to `Cc1cc(-c2ncccc2-c2ccc3ncc(C(=O)Nc4ccc(S(N)(=O)=O)cc4)n3c2)ccc1F` [compound 617, 6-(2-(4-Fluoro-3-methylphenyl)pyridin-3-yl)-N-(4-sulfamoylphenyl)imidazo[1,2-a]pyridine-3-carboxamide], for which the IC50 is 10.8 µM.

As to `N#Cc1cc(-c2ncccc2-c2cnc3[nH]ncc3c2)ccc1F` [Compound 158, 5-(3-(1H-Pyrazolo[3,4-b]pyridin-5-yl)pyridin-2-yl)-2-fluorobenzonitrile], the IC50 is 1.86 µM.

With `Nc1ncnc2ccc(-c3cccnc3-c3cccc(OC(F)(F)F)c3)cc12` [compound 452, 6-(2-(3-(Trifluoromethoxy)phenyl)pyridin-3-yl)quinazolin-4-amine], the IC50 is 0.223 µM.

Consider `Cc1cc(-c2nc3c(cc2-c2ccc4[nH]ncc4c2)N(C)CCO3)ccc1F` [compound 300, 6-(4-Fluoro-3-methylphenyl)-7-(1H-indazol-5-yl)-1-methyl-2,3-dihydro-1H-pyrido[2,3-b][1,4]oxazine], for which the IC50 was 12.8 µM.

Turning to `Cc1cc(-c2ncc(CN3CCN(C)CC3)cc2-c2ccc3nccnc3c2)ccc1F` [compound 230, 6-(2-(4-Fluoro-3-methylphenyl)-5-((4-methylpiperazin-1-yl)methyl)pyridin-3-yl)quinoxaline], the IC50 is 10.8 µM.
